Assay results published in ChEMBL document CHEMBL3882724 (2013).

Experiments:
[1] = target: T1, CYP21 (steroid 21-hydroxylase) (Homo sapiens, UniProt P08686); experiment: Inhibition of human CYP21 transfected in HEK293 cells assessed as decrease in conversion of progesterone to 11-deoxycorticosterone at 100 nM preincubated for 5 hrs followed by progesterone addition measured after 20 hrs by ELISA relative to control; type: cell-based; conditions: HEK293 cells transfected with human CYP21, probe progesterone
T1 sequence (P08686 whole entry): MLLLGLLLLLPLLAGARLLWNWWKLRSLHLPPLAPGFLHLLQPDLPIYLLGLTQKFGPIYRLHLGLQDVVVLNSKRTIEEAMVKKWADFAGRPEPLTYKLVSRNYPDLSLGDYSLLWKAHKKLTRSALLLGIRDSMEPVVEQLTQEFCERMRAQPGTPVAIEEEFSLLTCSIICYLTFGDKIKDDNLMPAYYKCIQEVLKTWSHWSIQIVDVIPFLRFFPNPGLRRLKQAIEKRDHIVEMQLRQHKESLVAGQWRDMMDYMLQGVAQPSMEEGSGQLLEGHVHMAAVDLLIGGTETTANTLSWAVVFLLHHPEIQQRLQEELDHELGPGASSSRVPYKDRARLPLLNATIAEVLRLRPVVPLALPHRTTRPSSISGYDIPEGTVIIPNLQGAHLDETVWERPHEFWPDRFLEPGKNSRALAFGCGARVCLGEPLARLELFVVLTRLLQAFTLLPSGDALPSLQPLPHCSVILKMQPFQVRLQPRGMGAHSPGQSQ

[2] = Half life in human liver microsomes at 1 uM by LC-MS/MS analysis
[3] = target: T2, Steroid 17-alpha-hydroxylase/17,20 lyase (Homo sapiens, UniProt P05093); experiment: Inhibition of CYP17 in human testicular microsomes using 17alpha-hydroxypregnenolone as substrate assessed as decrease in DHEA levels at 10 nM after 90 mins by ELISA relative to control; set-up: species or system Testis; conditions: 1.5 h
T2 sequence (P05093 whole entry): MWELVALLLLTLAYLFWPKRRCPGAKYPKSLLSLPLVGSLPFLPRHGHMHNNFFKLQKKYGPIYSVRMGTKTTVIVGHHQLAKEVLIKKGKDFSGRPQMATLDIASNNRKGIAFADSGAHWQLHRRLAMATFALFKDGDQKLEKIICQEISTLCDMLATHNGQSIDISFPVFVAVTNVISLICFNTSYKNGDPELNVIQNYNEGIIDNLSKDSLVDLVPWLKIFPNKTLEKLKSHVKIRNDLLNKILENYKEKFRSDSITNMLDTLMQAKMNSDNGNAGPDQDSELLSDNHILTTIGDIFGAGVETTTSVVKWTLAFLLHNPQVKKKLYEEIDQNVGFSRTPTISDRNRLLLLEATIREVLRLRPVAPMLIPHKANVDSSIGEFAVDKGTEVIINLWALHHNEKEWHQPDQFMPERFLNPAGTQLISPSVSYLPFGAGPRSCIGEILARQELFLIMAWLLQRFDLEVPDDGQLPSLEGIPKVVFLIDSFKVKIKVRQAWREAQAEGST

[4] = target: T2, Steroid 17-alpha-hydroxylase/17,20 lyase; experiment: Inhibition of CYP17 in human testicular microsomes using 17alpha-hydroxypregnenolone as substrate assessed as decrease in DHEA levels after 90 mins by ELISA; set-up: species or system Testis
CYP11B = target: T3, CYP11B (Rattus norvegicus, UniProt P15393+P30099); experiment: Inhibition of Sprague-Dawley rat adrenal mitochondrial CYP11B assessed as decrease in conversion of 11-deoxycortisol to cortisol at 100 nM incubated for 60 mins by ELISA relative to control; type: protein assay; conditions: adrenal mitochondria, probe 11-deoxycortisol
T3 sequence (P30099 whole entry): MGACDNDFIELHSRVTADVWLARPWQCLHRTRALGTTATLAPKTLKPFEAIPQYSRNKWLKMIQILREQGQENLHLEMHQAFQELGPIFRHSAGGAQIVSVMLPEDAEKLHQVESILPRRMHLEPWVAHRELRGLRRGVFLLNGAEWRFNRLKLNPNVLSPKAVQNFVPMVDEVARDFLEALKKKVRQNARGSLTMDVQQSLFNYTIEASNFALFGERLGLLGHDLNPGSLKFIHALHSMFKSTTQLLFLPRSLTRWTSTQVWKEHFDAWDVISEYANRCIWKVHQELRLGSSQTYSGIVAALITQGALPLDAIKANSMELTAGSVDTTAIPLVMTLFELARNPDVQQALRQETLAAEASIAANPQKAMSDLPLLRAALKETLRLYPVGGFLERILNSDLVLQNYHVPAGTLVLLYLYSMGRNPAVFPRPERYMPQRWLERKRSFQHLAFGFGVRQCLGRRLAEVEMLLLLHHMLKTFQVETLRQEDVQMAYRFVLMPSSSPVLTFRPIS
T3 sequence (P15393 whole entry): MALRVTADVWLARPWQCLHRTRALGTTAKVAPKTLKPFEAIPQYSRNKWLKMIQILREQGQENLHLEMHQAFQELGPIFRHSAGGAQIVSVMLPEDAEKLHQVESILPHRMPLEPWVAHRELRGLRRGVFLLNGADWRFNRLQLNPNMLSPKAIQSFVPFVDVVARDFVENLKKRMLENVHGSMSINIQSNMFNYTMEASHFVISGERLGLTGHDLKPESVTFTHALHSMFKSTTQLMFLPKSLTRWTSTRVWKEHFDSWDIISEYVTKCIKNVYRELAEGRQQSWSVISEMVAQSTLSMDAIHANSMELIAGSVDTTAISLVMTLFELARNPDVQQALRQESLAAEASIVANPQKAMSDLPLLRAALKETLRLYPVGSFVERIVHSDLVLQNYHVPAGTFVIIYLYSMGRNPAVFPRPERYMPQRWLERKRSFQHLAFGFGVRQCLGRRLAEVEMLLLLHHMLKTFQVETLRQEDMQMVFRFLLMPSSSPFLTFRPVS

[5] = target: T2, Steroid 17-alpha-hydroxylase/17,20 lyase; experiment: Inhibition of CYP17 in human testicular microsomes using 17alpha-hydroxypregnenolone as substrate assessed as decrease in DHEA levels at 1 nM after 90 mins by ELISA relative to control; set-up: species or system Testis
[6] = target: T1, CYP21 (steroid 21-hydroxylase); experiment: Inhibition of human CYP21 transfected in HEK293 cells assessed as decrease in conversion of progesterone to 11-deoxycorticosterone preincubated for 5 hrs followed by progesterone addition measured after 20 hrs by ELISA; type: cell-based; set-up: concentration or dose not given beside the values; conditions: HEK293 cells transfected with human CYP21, probe progesterone
[7] = Half life in rat liver microsomes at 1 uM by LC-MS/MS analysis
[8] = target: T2, Steroid 17-alpha-hydroxylase/17,20 lyase; experiment: Inhibition of CYP17 in human H295R cells assessed as decrease in testosterone levels after 24 hrs by ELISA; type: cell-based

inhibition at 20 h, 0.1 µM [1] [%]	half-life at 1 µM [2] [min]	inhibition at 0.01 µM [3] [%]	IC50 [4] [nM]	half-life at 1 µM [7] [min]	IC50 [8] [nM]	Structure (SMILES)	inhibition at 1 h, 0.1 µM (CYP11B) [%]	IC50 [5] [nM]	inhibition at 20 h [6] [%]
≥ 30	1 to 50	≥ 80	≤ 11	–	–	CN1CC[C@@]2(C)C(=CC1=O)CC[C@H]1C3=CC=C(c4cccnc4)[C@@]3(C)CC[C@@H]12	< 32	–	–
≥ 30	1 to 50	≥ 80	≤ 11	–	–	C[C@]12CCCC(=O)CC1=CC[C@@H]1[C@@H]2CC[C@]2(C)C(n3ccnc3)=CC[C@@H]12	–	–	–
≥ 30	1 to 50	≥ 80	≤ 11	1 to 10	–	C[C@]12CC[C@H]3[C@@H](CCC4=CC(=O)CC[C@@]43C)C1=CC=C2c1cccnc1	–	–	–
≥ 30	–	≥ 80	≤ 11	–	–	CN1CC[C@@]2(C)C(=CC1=O)CC[C@H]1C3=CC=C(c4cnccn4)[C@@]3(C)CC[C@@H]12	–	–	10 to 50
< 30	≥ 50	≥ 80	–	1 to 10	–	C[C@]12CCNC(=O)C=C1CC[C@@H]1[C@@H]2CC[C@]2(C)C(n3ccnn3)=CC[C@@H]12	–	–	–
< 30	–	50 to 80	≤ 11	–	–	CCCOc1cncc(C2=CC[C@H]3[C@@H]4CCC5=CC(=O)NCC[C@]5(C)[C@H]4CC[C@]23C)c1	–	–	–
< 30	10 to 60	≥ 80	≤ 11	10 to 60	–	CCc1cncc(C2=CC[C@H]3[C@@H]4CCC5=CC(=O)NCC[C@]5(C)[C@H]4CC[C@]23C)c1	–	–	–
≥ 30	1 to 50	≥ 80	–	–	–	C[C@]12CCCC(=O)CC1=CC[C@@H]1[C@@H]2CC[C@]2(C)C(c3cnccn3)=CC[C@@H]12	–	–	–
< 30	1 to 50	≥ 80	≤ 11	1 to 10	–	C[C@]12CC[C@H]3[C@@H](CC[C@H]4CC(=O)NCC[C@@]43C)C1=CC=C2c1cccnc1	–	–	–
< 30	1 to 10	≥ 80	≤ 11	1 to 10	–	C[C@]12CCNC(=O)C=C1CC[C@@H]1[C@@H]2CC[C@]2(C)C(c3cccnc3)=CC[C@@H]12	–	–	–
≥ 30	10 to 60	50 to 80	≤ 11	10 to 60	–	Cc1cncc(C2=CC[C@H]3[C@@H]4CCC5=CC(=O)NCC[C@]5(C)[C@H]4CC[C@]23C)c1	–	–	–
< 30	≥ 50	≥ 80	≤ 11	10 to 60	–	C[C@]12CC[C@H]3[C@@H](CCC4=CC(=O)NCC[C@@]43C)C1=CC=C2n1ccnc1	–	–	–
≥ 30	1 to 50	≥ 80	≤ 11	–	–	C[C@]12CC[C@H]3[C@@H](CC[C@H]4CC(=O)NCC[C@@]43C)C1=CC=C2n1ccnc1	–	–	–
< 30	≥ 50	≥ 80	≤ 11	10 to 60	≤ 15	C[C@]12CCNC(=O)C=C1CC[C@@H]1[C@@H]2CC[C@]2(C)C(n3ccnc3)=CC[C@@H]12	–	–	–
≥ 30	≥ 50	≥ 80	–	10 to 60	≤ 15	CN1CC[C@@]2(C)C(=CC1=O)CC[C@H]1C3=CC=C(n4ccnc4)[C@@]3(C)CC[C@@H]12	–	–	–
≥ 30	1 to 10	≥ 80	–	1 to 10	–	C[C@]12CCNC(=O)C=C1CC[C@@H]1[C@@H]2CC[C@]2(C)C(c3cnccn3)=CC[C@@H]12	–	–	–
< 30	–	50 to 80	≤ 11	–	–	C[C@]12CC[C@H]3[C@@H](CCN4C(=O)CCCC[C@]34C)[C@@H]1CC=C2c1cccnc1	–	–	–
≥ 30	1 to 50	≥ 80	≤ 11	–	–	COc1cncc(C2=CC=C3[C@@H]4CCC5=CC(=O)N(C)CC[C@]5(C)[C@H]4CC[C@]23C)c1	–	–	–
≥ 30	1 to 10	50 to 80	–	1 to 10	–	C[C@]12CCNC(=O)C=C1CC[C@@H]1[C@@H]2CC[C@]2(C)C(c3cncnc3)=CC[C@@H]12	–	–	–
≥ 30	10 to 60	50 to 80	≤ 11	10 to 60	–	CN1CC[C@@]2(C)C(=CC1=O)CCC1[C@@H]2CC[C@]2(C)C(c3cccnc3)=CC[C@@H]12 (single isomer, unassigned)	–	–	–

Structure (SMILES)	inhibition at 20 h, 0.1 µM [1] [%]	half-life at 1 µM [2] [min]	inhibition at 0.01 µM [3] [%]	IC50 [4] [nM]	half-life at 1 µM [7] [min]	IC50 [8] [nM]	inhibition at 1 h, 0.1 µM (CYP11B) [%]	IC50 [5] [nM]	inhibition at 20 h [6] [%]
CO/N=C1/C=C2CC[C@H]3C4=CC=C(c5cccnc5)[C@@]4(C)CC[C@@H]3[C@@]2(C)CC1	≥ 30	≥ 50	–	≤ 11	–	–	–	> 100	10 to 50
C[C@]12CC[C@H]3[C@@H](CC[C@H]4CC(=O)CC[C@@]43C)C1=CC=C2c1cccnc1	≥ 30	1 to 50	≥ 80	≤ 11	–	–	≥ 50	–	–
CCNC(=O)N[C@@H]1CC[C@@]2(C)C(=CC[C@@H]3[C@@H]2CC[C@]2(C)C(n4ccnc4)=CC[C@@H]32)C1	< 30	1 to 50	–	–	–	–	≥ 50	–	≥ 50
COc1cncc(C2=CC=C3[C@@H]4CCC5=CC(=O)CC[C@]5(C)[C@H]4CC[C@]23C)c1	≥ 30	1 to 50	50 to 80	–	–	–	–	–	–
